Reference: patent publication US20160199491A1, “Compounds compositions and methods including thermally labile moieties” (Biosearch Technologies, Inc., priority 2014, published 2016)

Assay: Deprotection of a Boc-protected PCR primer at 94° C. in water, PCR buffer or TEAA, tracked by reverse-phase HPLC and mass spec
Assay type: physicochemical
Protocol: The RNaseP forward primer 19-mer [AGATTTGGACCTGCGAGCG](SEQ ID NO: 1) was synthesized on Boc-dG CPG (1 μmol) with Boc dA, dC, and dG amidites. The fully deprotected mass for this primer is 5868 g/mol and the expected mass for Boc protection is […] [15 Boc residues.100 amu/Boc=1500 added]. Deprotection of side chain protecting groups was performed with 25% 2-methoxyethylamine in methanol (1 mL) for 3 hrs at room temp, remove CPG and evaporate to dryness, re-dissolve in DI water (1 mL). The DMT was […] because the Boc group can be used as a hydrophobic handle. The product was desalted with 20-50 micron polystyrene beads packed in a 1 mL cartridge and eluted in 20% ACN/H2O.
The desalted Boc-primer was aliquoted into three microfuge tubes of 100 uL each. The samples were dried down and brought up in 1 mL of house DI water. Only water was added to the first tube. To the second tube 1 mL of PCR buffer pH 8.5, 1× with MgCl2, was added to a final concentration of 6 mM (standard PCR concentrations). To the third tube TEAA was added to give a final concentration of 0.025 N. Each of the three samples was aliquoted into ten 200 uL thin-walled PCR tubes for a total of 30 tubes. All primer preparation was done at room temperature.
An ABI 9700 Thermocycler was preheated to 94° C. Each sample was placed into the heat block and removed at the time point and placed on dry ice to stop the reaction. As a negative control, the T=0 sample was not heated and placed directly in ice at the beginning of the experiment. The samples were allowed to thaw at room temperature and transferred to a 96-well plate for HPLC and mass spectroscopy analysis.
For each time point, reverse-phase and mass spec data were acquired to track the removal of the Boc protecting group. The Boc protected primer is not a single species but rather a collection at various stages of protection.

Substance: Boc-primer: RNaseP forward primer 19-mer [AGATTTGGACCTGCGAGCG] (SEQ ID NO: 1) synthesized with Boc dA, dC, and dG amidites (listed as DNA, chemistry not fully specified)
- deprotection after 10 minutes under normal PCR buffering (10 minutes, PCR buffer pH 8.5, 1× with MgCl2 6 mM): deprotected
- Boc groups after 10 minutes in TEAA (10 minutes, TEAA 0.025 N): some remained
- Boc groups after 10 minutes (10 minutes, samples in water, PCR buffer pH 8.5 with MgCl2 6 mM, TEAA 0.025 N): almost all of the Boc groups were gone
- Boc groups after 15 minutes in TEAA (15 minutes, TEAA 0.025 N): all were removed
